Target: T1, hFXR (Homo sapiens, UniProt Q96RI1)
T1 construct: expressed in transfected cells; host or cells: CV-1 cells
T1 sequence (Q96RI1 1-486): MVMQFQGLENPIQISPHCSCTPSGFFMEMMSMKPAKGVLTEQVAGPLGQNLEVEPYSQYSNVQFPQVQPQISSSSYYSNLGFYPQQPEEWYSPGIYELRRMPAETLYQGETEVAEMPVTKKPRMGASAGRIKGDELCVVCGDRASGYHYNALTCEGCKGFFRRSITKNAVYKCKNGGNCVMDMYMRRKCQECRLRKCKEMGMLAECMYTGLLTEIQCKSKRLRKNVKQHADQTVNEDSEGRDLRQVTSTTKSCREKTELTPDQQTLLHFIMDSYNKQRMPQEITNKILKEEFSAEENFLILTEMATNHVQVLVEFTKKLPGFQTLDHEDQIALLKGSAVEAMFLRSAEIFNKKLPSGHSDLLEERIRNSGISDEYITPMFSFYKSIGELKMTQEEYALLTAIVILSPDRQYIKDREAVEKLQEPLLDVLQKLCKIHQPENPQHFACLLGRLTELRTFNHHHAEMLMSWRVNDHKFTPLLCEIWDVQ
T1 sequence (P19793 1-462 partner): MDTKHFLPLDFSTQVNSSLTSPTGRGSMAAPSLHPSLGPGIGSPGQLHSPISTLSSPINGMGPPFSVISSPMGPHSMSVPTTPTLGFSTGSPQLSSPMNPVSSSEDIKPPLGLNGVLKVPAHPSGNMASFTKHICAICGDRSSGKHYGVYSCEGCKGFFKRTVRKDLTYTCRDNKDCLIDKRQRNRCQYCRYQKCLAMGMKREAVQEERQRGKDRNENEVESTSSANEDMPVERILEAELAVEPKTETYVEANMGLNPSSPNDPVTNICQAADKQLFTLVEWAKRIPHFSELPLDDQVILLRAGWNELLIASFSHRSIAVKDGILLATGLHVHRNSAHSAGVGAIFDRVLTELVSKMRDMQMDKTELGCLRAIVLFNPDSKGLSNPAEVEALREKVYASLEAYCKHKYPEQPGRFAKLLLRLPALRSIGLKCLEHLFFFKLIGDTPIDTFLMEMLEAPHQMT
Experiment: In Vitro FXR Assay (TK): TK-ECRE-luc reporter in transfected CV-1 cells
Type: cell-based
Conditions: 18 hrs, luminescence, maximum efficacy of <25% of the Fexarmine control classified as '+'
Experimental: CV-1 cells were seeded at a density of 2,000,000 cells in a T175 flask with DMEM+10% charcoal double-stripped FBS and incubated at 37° C. in 5% CO2 for 18 h (O/N).
After 18 h of incubation, the medium in the T175 flask was changed with fresh DMEM+10% charcoal super-stripped serum. In a polypropylene tube, 2500 μL OptiMEM (Life Technologies, Cat #31985-062) was combined with expression plasmids for hFXR, hRXR, TK-ECRE-luc and pCMX-YFP. The tube was then briefly vortexed and incubated at room temperature for 5 minutes. Transfection reagent (X-tremeGENE HP from Roche, Cat #06 366 236 001) was added to the OptiMEM/plasmid mixture vortexed and incubated at room temperature for 20 minutes. Following incubation, the transfection reagent/DNA mixture complex was added to cells in the T175 flask and the cells were incubated at 37° C. in 5% CO2 for 18 h (O/N).
Compounds were serially diluted in DMSO and added to transfected CV-1 cells. The cells were then incubated for 18 hrs. The next day cells were lysed and examined for luminescence.

Compound: CNC(=O)O[C@H]1CC[C@H](C(=O)N(C[C@H]2CC[C@H](c3ccc(N(C)C)nc3)CC2)c2cccc(-c3cnc(C4CC4)s3)c2)CC1 [Compound 1, trans-4-((3-(2-Cyclopropylthiazol-5-yl)phenyl)((trans-4-(6-(dimethylamino)pyridin-3-yl)cyclohexyl)methyl)carbamoyl)cyclohexyl methylcarbamate]
- EC50: ≤ 0.25 µM

Compound: CNC(=O)O[C@H]1CC[C@H](C(=O)N(C[C@H]2CC[C@H](c3ccc(OC)c(C)c3)CC2)c2cccc(-c3cnc(C4CC4)s3)c2)CC1 [Compound 1.01, trans-4-((3-(2-Cyclopropylthiazol-5-yl)phenyl)((trans-4-(4-methoxy-3-methylphenyl)cyclohexyl)methyl)carbamoyl)cyclohexyl methylcarbamate]
- EC50: ≤ 0.25 µM

Compound: CNC(=O)O[C@H]1CC[C@H](C(=O)N(CC23CCC(c4ccc(N(C)C)nc4)(CC2)CC3)c2cccc(-c3cnc(C4CC4)s3)c2)CC1 [Compound 1.02, 4-((3-(2-Cyclopropylthiazol-5-yl)phenyl)((4-(6-(dimethylamino)pyridin-3-yl)bicyclo[2.2.2]octan-1-yl)methyl)carbamoyl)cyclohexyl trans-methylcarbamate]
- EC50: ≤ 0.25 µM

Compound: CNC(=O)O[C@H]1CC[C@H](C(=O)N(C[C@H]2CC[C@H](c3ccc4c(c3)c(F)nn4C)CC2)c2cccc(-c3cnc(C4CC4)s3)c2)CC1 [Compound 1.03, trans-4-((3-(2-Cyclopropylthiazol-5-yl)phenyl)((trans-4-(3-fluoro-1-methyl-1H-indazol-5-yl)cyclohexyl)methyl)carbamoyl)cyclohexyl methylcarbamate]
- EC50: ≤ 0.25 µM

Compound: CNC(=O)O[C@H]1CC[C@H](C(=O)N(C[C@H]2CC[C@H](c3ccc(OC)c(C)c3)CC2)c2cccc(-c3cnn(C4CC4)c3)c2)CC1 [Compound 1.04, trans-4-((3-(1-Cyclopropyl-1H-pyrazol-4-yl)phenyl)((trans-4-(4-methoxy-3-methylphenyl)cyclohexyl)methyl)carbamoyl)cyclohexyl methylcarbamate]
- EC50: ≤ 0.25 µM

Compound: CNC(=O)O[C@H]1CC[C@H](C(=O)N(CC23CCC(c4ccc(OC)c(C)c4)(CC2)CC3)c2cccc(-c3cnn(C4CC4)c3)c2)CC1 [Compound 1.05, 4-((3-(1-Cyclopropyl-1H-pyrazol-4-yl)phenyl)((4-(4-methoxy-3-methylphenyl)bicyclo[2.2.2]octan-1-yl)methyl)carbamoyl)cyclohexyl trans-methylcarbamate]
- EC50: ≤ 0.25 µM

Compound: COc1ccc([C@H]2CC[C@H](CN(c3cccc(-c4cnn(C5CC5)c4)c3)C(=O)[C@H]3CC[C@H](OC(N)=O)CC3)CC2)cc1C [Compound 1.06, trans-4-((3-(1-Cyclopropyl-1H-pyrazol-4-yl)phenyl)((trans-4-(4-methoxy-3-methylphenyl)cyclohexyl)methyl)carbamoyl)cyclohexyl carbamate]
- EC50: ≤ 0.25 µM

Compound: COC(=O)O[C@H]1CC[C@H](C(=O)N(C[C@H]2CC[C@H](c3ccc(OC)c(C)c3)CC2)c2cccc(-c3cnn(C4CC4)c3)c2)CC1 [Compound 1.07, trans-4-((3-(1-Cyclopropyl-1H-pyrazol-4-yl)phenyl)((trans-4-(4-methoxy-3-methylphenyl)cyclohexyl)methyl)carbamoyl)cyclohexyl methyl carbonate]
- EC50: ≤ 0.25 µM

Compound: COc1ccc(C23CCC(CN(c4cccc(-c5cnn(C6CC6)c5)c4)C(=O)[C@H]4CC[C@H](OC(N)=O)CC4)(CC2)CC3)cc1C [Compound 1.08, 4-((3-(1-Cyclopropyl-1H-pyrazol-4-yl)phenyl)((4-(4-methoxy-3-methylphenyl)bicyclo[2.2.2]octan-1-yl)methyl)carbamoyl)cyclohexyl trans-carbamate]
- EC50: ≤ 0.25 µM

Compound: CNC(=O)O[C@H]1CC[C@H](C(=O)N(C[C@H]2CC[C@H](c3ccc4c(c3)c(F)nn4C)CC2)c2cccc(-c3cnn(C4CC4)c3)c2)CC1 [Compound 1.09, trans-4-((3-(1-Cyclopropyl-1H-pyrazol-4-yl)phenyl)((trans-4-(3-fluoro-1-methyl-1H-indazol-5-yl)cyclohexyl)methyl)carbamoyl)cyclohexyl methylcarbamate]
- EC50: ≤ 0.25 µM

Compound: CNC(=O)O[C@H]1CC[C@H](C(=O)N(C[C@H]2CC[C@H](c3ccc(OC)c(C)n3)CC2)c2cccc(-c3cnn(C(C)C)c3)c2)CC1 [Compound 1.10, trans-4-((3-(1-Isopropyl-1H-pyrazol-4-yl)phenyl)((trans-4-(5-methoxy-6-methylpyridin-2-yl)cyclohexyl)methyl)carbamoyl)cyclohexyl methylcarbamate]
- EC50: ≤ 0.25 µM

Compound: CNC(=O)O[C@H]1CC[C@H](C(=O)N(C[C@H]2CC[C@H](c3ccc(OC)c(C)c3)CC2)c2cccc(-c3cc(C4CC4)ns3)c2)CC1 [Compound 2, trans-4-((3-(3-Cyclopropylisothiazol-5-yl)phenyl)((trans-4-(4-methoxy-3-methylphenyl)cyclohexyl)methyl)carbamoyl)cyclohexyl methylcarbamate]
- EC50: ≤ 0.25 µM

Compound: CNC(=O)O[C@H]1CC[C@H](C(=O)N(C[C@H]2CC[C@H](c3ccc(OC)c(C)c3)CC2)c2cccc(-c3cnc(OC)s3)c2)CC1 [Compound 2.01, trans-4-(((trans-4-(4-Methoxy-3-methylphenyl)cyclohexyl)methyl)(3-(2-methoxythiazol-5-yl)phenyl)carbamoyl)cyclohexyl methylcarbamate]
- EC50: ≤ 0.25 µM

Compound: CNC(=O)O[C@H]1CC[C@H](C(=O)N(C[C@H]2CC[C@H](c3ccc(OC)c(C)n3)CC2)c2cccc(-c3cnc(C4CC4)s3)c2)CC1 [Compound 2.02, trans-4-((3-(2-Cyclopropylthiazol-5-yl)phenyl)((trans-4-(5-methoxy-6-methylpyridin-2-yl)cyclohexyl)methyl)carbamoyl)cyclohexyl methylcarbamate]
- EC50: ≤ 0.25 µM

Compound: CNC(=O)O[C@H]1CC[C@H](C(=O)N(CC23CCC(c4ccc(OC)c(C)c4)(CC2)CC3)c2cc(-c3cnc(C4CC4)s3)ccn2)CC1 [Compound 2.03, 4-((4-(2-Cyclopropylthiazol-5-yl)pyridin-2-yl)((4-(4-methoxy-3-methylphenyl)bicyclo[2.2.2]octan-1-yl)methyl)carbamoyl)cyclohexyl trans-methylcarbamate]
- EC50: ≤ 0.25 µM

Compound: CNC(=O)O[C@H]1CC[C@H](C(=O)N(C[C@H]2CC[C@H](c3ccc(OC)c(C)c3)CC2)c2cccc(C#Cc3nccs3)c2)CC1 [Compound 2.04, trans-4-(((trans-4-(4-Methoxy-3-methylphenyl)cyclohexyl)methyl)(3-(thiazol-2-ylethynyl)phenyl)carbamoyl)cyclohexyl methylcarbamate]
- EC50: ≤ 0.25 µM

Compound: CNC(=O)O[C@H]1CC[C@H](C(=O)N(CC23CCC(c4ccc(OC)c(C)c4)(CC2)CC3)c2cccc(C#Cc3nccs3)c2)CC1 [Compound 2.05, 4-(((4-(4-Methoxy-3-methylphenyl)bicyclo[2.2.2]octan-1-yl)methyl)(3-(thiazol-2-ylethynyl)phenyl)carbamoyl)cyclohexyl trans-methylcarbamate]
- EC50: ≤ 0.25 µM

Compound: CNC(=O)O[C@H]1CC[C@H](C(=O)N(C[C@H]2CC[C@H](c3ccc(OC)c(C)c3)CC2)c2cccc(-c3coc(C4CC4)n3)c2)CC1 [Compound 2.06, trans-4-((3-(2-Cyclopropyloxazol-4-yl)phenyl)((trans-4-(4-methoxy-3-methylphenyl)cyclohexyl)methyl)carbamoyl)cyclohexyl) methylcarbamate]
- EC50: ≤ 0.25 µM

Compound: CNC(=O)O[C@H]1CC[C@H](C(=O)N(CC23CCC(c4ccc(OC)c(C)c4)(CC2)CC3)c2cccc(-c3coc(C4CC4)n3)c2)CC1 [Compound 2.07, 4-((3-(2-Cyclopropyloxazol-4-yl)phenyl)((4-(4-methoxy-3-methylphenyl)bicyclo[2.2.2]octan-1-yl)methyl)carbamoyl)cyclohexyl trans-methylcarbamate]
- EC50: ≤ 0.25 µM

Compound: CNC(=O)O[C@H]1CC[C@H](C(=O)N(CC23CCC(c4ccc(OC)c(C)c4)(CC2)CC3)c2cccc(-c3cc(C4CC4)ns3)c2)CC1 [Compound 2.08, 4-((3-(3-Cyclopropylisothiazol-5-yl)phenyl)((4-(4-methoxy-3-methylphenyl)bicyclo[2.2.2]octan-1-yl)methyl)carbamoyl)cyclohexyl trans-methylcarbamate]
- EC50: ≤ 0.25 µM

From patent US20220089575A1, “FARNESOID X RECEPTOR AGONISTS AND USES THEREOF” (Metacrine, Inc., priority 2017, published 2022)
